Active and inactive are the calls of the source. The rule behind the calls is not given here.
Tests used:
[1] = system: Farnesyl diphosphate synthase (Sus scrofa); experiment: Compound was tested for apparent Km values of Farnesyl diphosphate synthase from Pig liver; Active
[2] = system: Farnesyl diphosphate synthase (Geobacillus stearothermophilus); experiment: Compound was tested for apparent Km values of Farnesyl diphosphate synthase from Bacteria; Active

Activity [1]: Active | Activity [2]: Active
SMILES: C/C(=C\COP(=O)(O)OP(=O)(O)O)CCCO
